From patent publication US4118506A, “Pharmaceutical compositions containing 1,3-dithiol-2-ylidene malonate derivatives” (Nihon Nohyaku Co., Ltd., priority 1976, dated 1978)

Tests used:
[1] = tested on: acute liver damage induced by bromobenzene; test: protective effect on acute liver damage associated with centrilobular necrosis, bromobenzene model; assay type: in vivo, rat (SD)
Description: (§1) Bromobenzene (hereinafter abbreviated as BB), Dimethylnitrosamine (hereinafter abbreviated as DMN) and chloroform (hereinafter abbreviated as CF) resemble carbon tetrachloride in inducing liver damage associated with centrilobular necrosis.
(§2) Test compound or anethol trithion was orally administered to animal at the dose of 100 mg/kg. Twenty four hours after it (in the case of dimethylnitrosamine, exceptionally fifteen hours after it) the animals were sacrificed and blood samples were collected. Indices of hepatotoxicity adoptable in each chemical were measured, from which the efficacy of the compound was evaluated.
BB male rat 0.75 oral p-GPT activity

[2] = tested on: liver injury and chronic hepatitis; test: clinical test on liver injury and chronic hepatitis; assay type: in vivo, human; conditions: for p-GOT activity / p-GPT activity: tablets of Example 6, 12 a day
Description: Six patients were used for the test. One was diagnosed as liver injury caused by administration of PAS (p-aminosalicyclic acid) for three months and five were diagnosed as chronic hepatitis by doctor.
The tablets obtained in Example 6 were orally administered to the respective patients at the dose of twelve tablets a day (four tablets after every meal).
Curing effects on the liver injury and chronic hepatitis after administration were evaluated by measuring plasma transaminase activity (p-GPT and p-GOT).

[3] = tested on: acute liver damage induced by D-galactosamine; test: protective effect on acute hepatitis with mesenchymal reaction and discrete lobular necrosis, D-galactosamine model; assay type: in vivo, rat (SD strain); conditions: 250 mg/kg oral 6 h before D-galactosamine i.p.
Description: D-Galactosamine is a compound which induces a discrete lobular necrosis associated with mesenchymal reaction similar to the change observed in human viral hepatitis, so that it is frequently used in producing a model for viral hepatitis.
The compound of this invention or anethol trithion was administered orally to the male rat (SD strain) at the dose of 250 mg/kg. Six hours after it, D-galactosamine was intraperitoneally administered at the dose of 600 mg/kg. Four hours after it, an additional 300 mg/kg was administered intraperitoneally. Eight hours after it, the animals were sacrificed to collect the blood samples. P-GPT activity and triglyceride in the liver were measured to evaluate the effect of the compound of this invention.

[4] = tested on: acute liver damage induced by chloroform; test: protective effect on acute liver damage associated with centrilobular necrosis, chloroform model; assay type: in vivo, mouse (dd); conditions: chloroform 0.2 ml/kg oral; 100 mg/kg oral 6 h before; 24 h after
Description: as §1, §2
CF male mouse 0.2 oral p-GPT activity

[5] = tested on: acute liver damage induced by carbon tetrachloride; test: protective effect on acute liver damage associated with centrilobular necrosis, carbon tetrachloride model; assay type: in vivo, mouse (dd strain); conditions: 250 mg/kg oral 6 h before CCl4, 24 h after CCl4
Excerpt: Carbon tetrachloride (CCl4) administration induces centrilobular necrosis of the liver associated with loss of diphosphopyridine nucleotide, hepatic glycogen, coenzyme A and increase in neutral fat. Release of several enzymes from the hepatocytes, and increase of enzyme activities in the plasma are recognized as the result of the damage of the liver. A suitable means for evaluating the degree of damage induced by CCl4 or the degree of protection afforded by drugs is to study the plasma glutamic-pyruvic transaminase (p-GPT) activity.
Methods: The test compounds were dissolved or suspended in olive oil and administered orally at the dose of 250 mg/kg to the mice (Four-week-old male mice-dd strain). After 6 hours, CCl4 was administered orally (0.05 ml/kg as olive oil solution). Animals were killed 24 hours after CCl4 administration, and the liver was grossly observed. The plasma was obtained by centrifugation. Activities of p-GPT were determined by the method of Reitman and Frankel and expressed in Karmen units.
Score for liver damage index was as follows:
Each figure indicates average of 5 to 6 mice. Values of p-GPT over 1,000 Karmen unit regarded as 1,000 for calculation of average for convenience.

[6] = bromobenzene 0.75 ml/kg oral, 100 mg/kg oral 6 h before, 24 h after
[7] = patient 1, liver injury (PAS), person, before administration
[8] = patient 2, chronic hepatitis, before administration
[9] = patient 3, chronic hepatitis, before administration
[10] = patient 4, chronic hepatitis, before administration
[11] = patient 5, chronic hepatitis, before administration
[12] = patient 6, chronic hepatitis, before administration

SMILES: CC(C)OC(=O)C(C(=O)OC(C)C)=C1SC=CS1 [Compound 4, diisopropyl 1,3-dithiol-2-ylidene malonate]
- indices of hepatotoxicity ([1]; BB, DMN and CF models together, Table 4): normalized the indices of hepatotoxicity
- BSP [1, 6]: 10.6 ± 4.5 mg/dL
- p-GPT [1, 6]: 23 ± 3.7 Karmen unit
- plasma transaminase activity (p-GPT and p-GOT) ([2]; in words): useful for normalizing plasma transaminase activity
- p-GOT activity ([2]; patient 1, after 3 days): 270 Karmen Unit
- p-GPT activity ([2]; patient 1, after 3 days): 215 Karmen Unit
- p-GOT activity ([2]; patient 1, after 4 days): 231 Karmen Unit
- p-GPT activity ([2]; patient 1, after 4 days): 169 Karmen Unit
- p-GOT activity ([2]; patient 1, after 7 days): 81 Karmen Unit
- p-GPT activity ([2]; patient 1, after 7 days): 94 Karmen Unit
- p-GOT activity ([2]; patient 1, after 12 days): 36 Karmen Unit
- p-GPT activity ([2]; patient 1, after 12 days): 41 Karmen Unit
- p-GOT activity ([2]; patient 1, after 15 days): 37 Karmen Unit
- p-GPT activity ([2]; patient 1, after 15 days): 24 Karmen Unit
- p-GOT activity ([2]; patient 1, after 19 days): 24 Karmen Unit
- p-GPT activity ([2]; patient 1, after 19 days): 21 Karmen Unit
- p-GOT activity [2, 7]: 270 Karmen Unit
- p-GPT activity [2, 7]: 270 Karmen Unit
- p-GOT activity ([2]; patient 2, after 14 days): 68 Karmen Unit
- p-GPT activity ([2]; patient 2, after 14 days): 62 Karmen Unit
- p-GOT activity ([2]; patient 2, after 35 days): 24 Karmen Unit
- p-GPT activity ([2]; patient 2, after 35 days): 43 Karmen Unit
- p-GOT activity [2, 8]: 270 Karmen Unit
- p-GPT activity [2, 8]: 270 Karmen Unit
- p-GOT activity ([2]; patient 3, after 14 days): 100 Karmen Unit
- p-GPT activity ([2]; patient 3, after 14 days): 96 Karmen Unit
- p-GOT activity ([2]; patient 3, after 56 days): 77 Karmen Unit
- p-GPT activity ([2]; patient 3, after 56 days): 87 Karmen Unit
- p-GOT activity [2, 9]: 145 Karmen Unit
- p-GPT activity [2, 9]: 163 Karmen Unit
- p-GOT activity ([2]; patient 4, after 2 days): 60 Karmen Unit
- p-GPT activity ([2]; patient 4, after 2 days): 113 Karmen Unit
- p-GOT activity ([2]; patient 4, after 9 days): 68 Karmen Unit
- p-GPT activity ([2]; patient 4, after 9 days): 94 Karmen Unit
- p-GOT activity ([2]; patient 4, after 16 days): 49 Karmen Unit
- p-GPT activity ([2]; patient 4, after 16 days): 62 Karmen Unit
- p-GOT activity ([2]; patient 4, after 62 days): 33 Karmen Unit
- p-GPT activity ([2]; patient 4, after 62 days): 33 Karmen Unit
- p-GOT activity [2, 10]: 80 Karmen Unit
- p-GPT activity [2, 10]: 185 Karmen Unit
- p-GOT activity ([2]; patient 5, after 8 days): 78 Karmen Unit
- p-GPT activity ([2]; patient 5, after 8 days): 119 Karmen Unit
- p-GOT activity ([2]; patient 5, after 28 days): 65 Karmen Unit
- p-GPT activity ([2]; patient 5, after 28 days): 79 Karmen Unit
- p-GOT activity ([2]; patient 5, after 30 days): 57 Karmen Unit
- p-GPT activity ([2]; patient 5, after 30 days): 57 Karmen Unit
- p-GOT activity [2, 11]: 95 Karmen Unit
- p-GPT activity [2, 11]: 94 Karmen Unit
- p-GOT activity ([2]; patient 6, after 14 days): 108 Karmen Unit
- p-GPT activity ([2]; patient 6, after 14 days): 306 Karmen Unit
- p-GOT activity ([2]; patient 6, after 23 days): 48 Karmen Unit
- p-GPT activity ([2]; patient 6, after 23 days): 121 Karmen Unit
- p-GOT activity ([2]; patient 6, after 36 days): 33 Karmen Unit
- p-GPT activity ([2]; patient 6, after 36 days): 65 Karmen Unit
- p-GOT activity ([2]; patient 6, after 56 days): 24 Karmen Unit
- p-GPT activity ([2]; patient 6, after 56 days): 53 Karmen Unit
- p-GOT activity ([2]; patient 6, after 82 days): 24 Karmen Unit
- p-GPT activity ([2]; patient 6, after 82 days): 39 Karmen Unit
- p-GOT activity [2, 12]: 83 Karmen Unit
- p-GPT activity [2, 12]: 354 Karmen Unit
- Triglyceride in the liver [3]: 4.4 ± 0.68 mg/g
- p-GPT [3]: 51 ± 15 Karmen unit
- p-GPT [4]: 58 ± 15 Karmen unit
- Liver Damage Index ([5]; 0 normal, 2 slightly recognized, 4 clearly observable, 6 heavy damage, average of 5 to 6 mice): 0.0
- p-GPT ([5]; values over 1,000 taken as 1,000): 36 Karmen units
